Results reported in patent US11591323B2, “Muscarinic agonists as non-steroidal and non-opioid analgesics and methods of use thereof” (Barry University, priority 2019, dated 2023).
Where two headings read alike, the source gives them in different places.

Tests used:
[1] = target: M3 muscarinic receptor (Homo sapiens, UniProt P20309); experiment: stimulation of cAMP, M3 CHO cells (M3Gs); type: cell-based; design: host or cells: CHO cells, stably transfected
Description: Since activation of phospholipase C (PLC) via M2 and M4 receptors is weak, cells were transferred with G15 G-protein to facilitate coupling.
(§1) To determine level of cAMP, cells in suspension were pre-incubated for 1 h with 0.4 μM [^3H]adenine, washed, and incubated for 10 min in the presence of isobutylmethylxanthine and 10 μM forskolin. […] Incubation was ended by addition of 0.2 ml of 2.5 M HCl to the samples. Samples were applied to alumina columns (1.5 g of alumina per column), washed with 2 ml ammonium acetate (pH=7.0) and eluted from columns with 4 ml ammonium acetate and measured by liquid scintillation spectrometry. […] The incubation was stopped by addition of 0.5 ml of chloroform methanol HCl mixture (2:1:0.1). After separation of water and organic phases, 0.6 ml of water phase was applied to Dowex columns (1.5 g of Dowex per column), washed by 20 ml of 60 mM ammonium formate/5 mM sodium borate buffer and eluted from columns with 4 ml of 1M ammonium formate/0.1 formic acid buffer and measured by liquid scintillation spectrometry.
(§2) Measurements of the production of cAMP and inositol phosphates: Levels of second messengers cAMP and inositol phosphates were determined in radiochemical chromatography assays as described previously. To determine level of cAMP, cells in suspension were pre-incubated for 1 h with 0.4 μM [^3H]adenine, washed, and incubated for 10 min in the presence of isobutylmethylxanthine and 10 μM forskolin. […] Incubation was ended by addition of 0.2 ml of 2.5 M HCl to the samples. Samples were applied to alumina columns (1.5 g of alumina per column), washed with 2 ml ammonium acetate (pH=7.0) and eluted from columns with 4 ml ammonium acetate and measured by liquid scintillation spectrometry. […] For this purpose, new CHO cell lines stably expressing promiscuous G15 G-protein and M2 or M4 receptor were generated by transfection with pCMV/hygro vector and hygromycin selection. To determine the rate of formation of inositol phosphates IPX, suspended cells were pre-incubated with 0.1 μM [^3H]myo-inositol for 60 min, washed, and incubated with 10 mM LiCl for 15 min. […] The incubation was stopped by addition of 0.5 ml of chloroform methanol HCl mixture (2:1:0.1). After separation of water and organic phases, 0.6 ml of water phase was applied to Dowex columns (1.5 g of Dowex per column), washed by 20 ml of 60 mM ammonium formate/5 mM sodium borate buffer and eluted from columns with 4 ml of 1M ammonium formate/0.1 formic acid buffer and measured by liquid scintillation spectrometry.
(§3) For bi-phasic response, curves were inhibitory and stimulatory phase were fitted separately. Operational Model of Functional Agonism
(§4) [formula] where y is functional response at concentration of tested compound x, EMAX is maximal response of the system, KA is equilibrium dissociation constant and nH is slope factor. Eq. 5 was fitted to data from functional experiments. Eq. 5 was fitted to data by the two-step procedure described earlier. […] In the second step, Eq. 5 with EMAX fixed to the value determined in the first step was fitted to individual experimental data sets. Relative Intrinsic Activity
Muscarinic receptors are also able to stimulate non-preferential signalling pathways.

[2] = target: T1, M4 muscarinic receptor (Homo sapiens, UniProt P08173); experiment: stimulation of cAMP, M4 CHO cells (M4Gs); type: cell-based; design: host or cells: CHO cells, stably transfected; details: for E′MAX / τ / RAi / Δlog(τ/KA): M4Gs (↑cAMP); for E′MAX / τ: Table 8; for RAi: Table 8, relative to carbachol; for Δlog(τ/KA): Table 8, to carbachol
T1 sequence (P08173 1-479): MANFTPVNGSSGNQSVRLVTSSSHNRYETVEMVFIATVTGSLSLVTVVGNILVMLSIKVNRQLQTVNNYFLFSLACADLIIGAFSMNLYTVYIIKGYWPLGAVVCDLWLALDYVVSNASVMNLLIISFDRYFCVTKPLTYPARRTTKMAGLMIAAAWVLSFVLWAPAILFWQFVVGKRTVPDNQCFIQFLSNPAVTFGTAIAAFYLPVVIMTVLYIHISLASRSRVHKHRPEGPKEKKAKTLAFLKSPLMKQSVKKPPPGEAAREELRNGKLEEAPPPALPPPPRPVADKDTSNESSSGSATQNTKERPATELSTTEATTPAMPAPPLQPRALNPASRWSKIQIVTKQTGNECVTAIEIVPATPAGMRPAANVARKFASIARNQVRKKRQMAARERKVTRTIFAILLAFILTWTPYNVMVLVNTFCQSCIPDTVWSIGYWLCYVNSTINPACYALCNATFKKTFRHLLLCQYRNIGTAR
Description: as §1, §2, §3, §4

[3] = M3Gs (↑cAMP), Table 8, relative to carbachol

M3 muscarinic receptor, sequence (P20309 whole entry): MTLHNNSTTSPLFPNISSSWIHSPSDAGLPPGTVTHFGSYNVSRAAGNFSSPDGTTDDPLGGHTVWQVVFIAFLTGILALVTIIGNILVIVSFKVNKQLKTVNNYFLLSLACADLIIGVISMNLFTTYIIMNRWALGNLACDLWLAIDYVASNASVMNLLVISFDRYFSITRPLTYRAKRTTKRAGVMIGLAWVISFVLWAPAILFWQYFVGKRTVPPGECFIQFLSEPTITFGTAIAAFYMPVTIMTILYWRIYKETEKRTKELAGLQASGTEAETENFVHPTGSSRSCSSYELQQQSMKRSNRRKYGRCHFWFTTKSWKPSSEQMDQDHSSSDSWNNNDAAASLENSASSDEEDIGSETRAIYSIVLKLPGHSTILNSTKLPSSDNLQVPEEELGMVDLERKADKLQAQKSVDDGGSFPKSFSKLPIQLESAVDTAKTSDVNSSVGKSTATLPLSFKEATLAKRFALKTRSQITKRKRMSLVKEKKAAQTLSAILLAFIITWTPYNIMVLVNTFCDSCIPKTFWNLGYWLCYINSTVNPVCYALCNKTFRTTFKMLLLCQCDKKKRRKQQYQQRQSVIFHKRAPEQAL

SMILES: O=C1CCCN1CC#CCN1CCCC1 [oxotremorine, reference compound]
- EC50 [1]: 2.63 µM
- E′MAX [1]: 1.9 ± 0.1 fold increase
- Kd [1]: 3.98 µM
- RAi [1]: 4.23 ± 0.28
- Δlog(τ/KA) [1]: −0.63 ± 0.06
- τ [1]: 0.48 ± 0.05
- EC50 [2]: 2.75 µM
- Kd [2]: 6.31 µM
- E′MAX [2]: 2.6 ± 0.2 fold increase
- τ [2]: 1.3 ± 0.1
- RAi [2]: 3.58 ± 0.31
- Δlog(τ/KA) [2]: −0.55 ± 0.06

SMILES: C[N+](C)(C)CCOC(N)=O [carbachol, reference compound]
- E′MAX [2]: 2.9 ± 0.2 fold increase
- τ [2]: 1.9 ± 0.2
- Δlog(τ/KA) [2]: 0

SMILES: C1=CCN(Cc2cccs2)CC1.Cl [Compound 6A, 1-[(thiophen-2-yl)methyl]-1,2,3,6-tetrahydropyridin-1-ium chloride]
- RAi [1, 3]: 0
- RAi [2]: 0

SMILES: C[N+]1(Cc2cccs2)CC=CCC1.[I-] (stereo not shown) [Compound 7A, 1-methyl-1-[(thiophen-2-yl)methyl]-1,2,3,6-tetrahydropyridin-1-ium iodide]
- RAi [1, 3]: 0
- RAi [2]: 0
